US7582627B2, “3-aminoquinazolin-2,4-dione antibacterial agents” (Warner-Lambert Company, priority 2000, dated 2009)
Structures can show the parent of a compound that is named as a salt.

SMILES | melting point
Cc1c(N2CC(CN)C3(CC3)C2)c(F)cc2c(=O)n(N)c(=O)n(C3CC3)c12.Cl (stereo not drawn) | 167 °C
COc1c(N2CC3CC3(CN)C2)c(F)cc2c(=O)n(N)c(=O)n(C3CC3)c12.Cl (stereo not drawn) | 183 to 185 °C
CC(C)(N)[C@@H]1CCN(c2nc3c(cc2F)c(=O)n(N)c(=O)n3C2CC2)C1.Cl | > 260 °C
Cl.Nn1c(=O)c2cc(F)c(C3CCC4CNCC4N3)nc2n(C2CC2)c1=O (stereo not drawn) | 200 to 202 °C
Cc1c(N2C[C@@H](CN)[C@H](C)C2)c(F)cc2c(=O)n(N)c(=O)n(C3CC3)c12.Cl (relative stereo) | 220 °C
Cc1c(N2CCC(CN)(c3ccccc3)C2)c(F)cc2c(=O)n(N)c(=O)n(C3CC3)c12.Cl (stereo not drawn) | 227 to 231 °C
Cl.N[C@@H]1CN(c2c(F)cc3c(=O)n(N)c(=O)n(C4CC4)c3c2Cl)C[C@H]1c1ccccc1 (relative stereo) | 174 to 175 °C
CC1COc2c(N3CC[C@H](N)C3)c(F)cc3c(=O)n(N)c(=O)n1c23.Cl (stereo partly drawn) | 202 to 204 °C
CC(C)n1c(=O)n(N)c(=O)c2cc(F)c(N3CCC(N)C3)c(Cl)c21 (stereo not drawn) (as salt: trifluoroacetate) | 151 °C
NC1CCN(c2c(Cl)cc3c(=O)n(N)c(=O)n(C4CC4)c3c2F)C1.O=C(O)C(F)(F)F (stereo not drawn) | 135 to 137 °C
COc1c(N2C[C@@H](CN)[C@@H](F)C2)c(F)cc2c(=O)n(N)c(=O)n(C3CC3)c12.Cl (relative stereo) | 169 to 179 °C
Nc1c(F)c(N2CC[C@H](N)C2)c(F)c2c1c(=O)n(N)c(=O)n2C1CC1 (as salt: hydrochloride) [Compound 11, 7-((S)-3-Aminopyrrolidin-1-yl)-1-cyclopropyl-3,5-diamino-6,8-difluoro-1H-quinazoline-2,4-dione hydrochloride] | 215 to 218 °C (dec.)
Cc1c(N2CC(C(C)N)C(C)(C)C2)c(F)cc2c(=O)n(N)c(=O)n(C3CC3)c12.Cl (stereo not drawn) | 246 °C
CCn1c(=O)n(N)c(=O)c2cc(F)c(N3CC[C@@H](C(C)(C)N)C3)cc21.Cl | > 250 °C
COc1c(N2CC(N)C(OC)C2)c(F)cc2c(=O)n(N)c(=O)n(C3CC3)c12.Cl (stereo not drawn) | > 250 °C
Cl.NCC1(Cc2ccccc2)CCN(c2c(F)cc3c(=O)n(N)c(=O)n(C4CC4)c3c2Cl)C1 (stereo not drawn) | 148 to 150 °C
COCC1(CN)CCN(c2c(F)cc3c(=O)n(N)c(=O)n(C4CC4)c3c2C)C1.Cl (stereo not drawn) | 172 to 177 °C
COc1c(N2CCCC2)c(F)cc2c(=O)n(N)c(=O)n(C3CC3)c12.Cl | 92 to 94 °C
Cl.Nn1c(=O)c2cc(F)c(N3CC4CCNCC4C3)nc2n(C2CC2)c1=O (stereo not drawn) | 200 to 203 °C
COc1c(N2CC(CN)C3(CC3)C2)c(F)cc2c(=O)n(N)c(=O)n(C3CC3)c12.Cl (stereo not drawn) | 178 °C
COc1c(N2CC3C(N)CC3(C)C2)c(F)cc2c(=O)n(N)c(=O)n(C3CC3)c12.Cl (stereo not drawn) | > 190 °C
Cl.N[C@H]1CCN(c2nc3c(cc2F)c(=O)n(N)c(=O)n3C2CC2)C1 | 213 to 215 °C
Cl.NC[C@@H]1CN(c2nc3c(cc2F)c(=O)n(N)c(=O)n3C2CC2)C[C@H]1C(F)(F)F (relative stereo) | 214 to 216 °C

SMILES | melting point
Cc1c(N2CC3CCCNC3C2)c(F)cc2c(=O)n(N)c(=O)n(C3CC3)c12.Cl (stereo not drawn) | 220 °C
Cc1c(N2CC(C(C)N)C3(CC3)C2)c(F)cc2c(=O)n(N)c(=O)n(C3CC3)c12.Cl (stereo not drawn) | 178 to 180 °C
Cl.Cl.NCC1CCCN(c2nc3c(cc2F)c(=O)n(N)c(=O)n3C2CC2)C1 (stereo not drawn) | 152 to 154 °C
COc1c(N2CC(N)C(F)C2)c(F)cc2c(=O)n(N)c(=O)n(C3CC3)c12.Cl (stereo not drawn) | > 250 °C
COc1c(N2C[C@@H](CN)[C@H](F)C2)c(F)cc2c(=O)n(N)c(=O)n(C3CC3)c12.Cl (relative stereo) | 144 to 147 °C
CCn1c(=O)n(N)c(=O)c2ccc(N3CC[C@H](N)C3)c(F)c21.Cl | 248 to 251 °C
Cl.N[C@H]1CCN(c2cc3c(cc2F)c(=O)n(N)c(=O)n3C2CC2)C1 | > 250 °C
C[C@H](N)[C@@H]1CCN(c2nc3c(cc2F)c(=O)n(N)c(=O)n3C2CC2)C1.Cl | > 260 °C
CC1CCc2c(N3CC[C@@H]([C@H](C)N)C3)c(F)cc3c(=O)n(N)c(=O)n1c23.Cl (stereo partly drawn) | 197 to 199 °C
COc1c(N2C[C@@H](C)[C@H](N)C2)c(F)cc2c(=O)n(N)c(=O)n(C3CC3)c12.Cl (relative stereo) | 209 °C
COc1c(N2CC(C(C)N)C(C)(C)C2)c(F)cc2c(=O)n(N)c(=O)n(C3CC3)c12.Cl (stereo not drawn) | 230 °C
COc1c(N2CCC(F)(C(C)N)C2)c(F)cc2c(=O)n(N)c(=O)n(C3CC3)c12.Cl (stereo not drawn) | 190 to 192 °C
COc1c(N2C[C@@H](CN)[C@H](C(F)(F)F)C2)c(F)cc2c(=O)n(N)c(=O)n(C3CC3)c12.Cl (relative stereo) | 205 to 207 °C
COc1c(N2CCC(O)(CN)C2)c(F)cc2c(=O)n(N)c(=O)n(C3CC3)c12.Cl (stereo not drawn) | 202 °C
Cc1c(N2CC3CCCCC3(CN)C2)c(F)cc2c(=O)n(N)c(=O)n(C3CC3)c12.Cl (stereo not drawn) | > 250 °C
COc1c(N2C[C@@H](CN)[C@H](C)C2)c(F)cc2c(=O)n(N)c(=O)n(C3CC3)c12.Cl (relative stereo) | 189 °C
COc1c(N2CCCC(C(C)N)C2)c(F)cc2c(=O)n(N)c(=O)n(C3CC3)c12.Cl (stereo not drawn) | 198 °C
COC1(C(C)N)CCN(c2c(F)cc3c(=O)n(N)c(=O)n(C4CC4)c3c2C)C1.Cl (stereo not drawn) | 190 to 192 °C
CC1(CN)CCN(c2c(F)cc3c(=O)n(N)c(=O)n(C4CC4)c3c2Cl)C1 (stereo not drawn) (as salt: hydrochloride) [Compound 3, 3-Amino-7-[3-(aminomethyl)-3-methylpyrrolidin-1-yl]-8-chloro-1-cyclopropyl-6-fluoro-1H-quinazoline-2,4-dione hydrochloride] | 166 to 168 °C
CC1CCc2c(N3CC[C@H](N)C3)c(F)cc3c(=O)n(N)c(=O)n1c23 (stereo partly drawn) (as salt: hydrochloride) | 202 to 204 °C
CC1COc2c(N3CC[C@@H]([C@H](C)N)C3)c(F)cc3c(=O)n(N)c(=O)n1c23.Cl (stereo partly drawn) | 192 to 194 °C
COc1c(N2CCC3(CC3N)C2)c(F)cc2c(=O)n(N)c(=O)n(C3CC3)c12.Cl (stereo not drawn) | > 250 °C
COc1c(N2CCC(C(=O)O)C2)c(F)cc2c(=O)n(N)c(=O)n(C3CC3)c12.O=C(O)C(F)(F)F (stereo not drawn) | 252 °C (dec.)

The next lines start with the values.

melting point | SMILES
109 to 112 °C | CS(=O)(=O)NCC1CCN(c2c(F)cc3c(=O)n(N)c(=O)n(C4CC4)c3c2Cl)C1.Cl (stereo not drawn)
147 to 149 °C | Nn1c(=O)c2cc(F)c(N3CCC(=NO)C3)c(Cl)c2n(C2CC2)c1=O [Compound 65, 3-Amino-8-chloro-1-cyclopropyl-6-fluoro-7-(3-hydroxyimino-pyrrolidin-1-yl)-1H-quinazoline-2,4-dione]
189 to 194 °C | Cc1c(N2CC3CC3(CN)C2)c(F)cc2c(=O)n(N)c(=O)n(C3CC3)c12.Cl (stereo not drawn)
164 to 166 °C | C[C@H](N)[C@@H]1CCN(c2c(F)cc3c(=O)n(N)c(=O)n(C4CC4)c3c2Cl)C1.Cl
194 to 196 °C | Cc1c(N2CC[C@H]([C@@H](C)N)C2)c(F)cc2c(=O)n(N)c(=O)n(C3CC3)c12.Cl [Compound 75]
221 to 223 °C | COc1c(N2CC[C@H]([C@H](C)N)C2)c(F)cc2c(=O)n(N)c(=O)n(C3CC3)c12.Cl
147 to 149 °C | Cl.NCC1CCN(c2c(Cl)cc3c(=O)n(N)c(=O)n(C4CC4)c3c2Cl)C1 (stereo not drawn)
116 to 120 °C | Cc1c(N2CCC(C(C)(C)O)C2)c(F)cc2c(=O)n(N)c(=O)n(C3CC3)c12.Cl (stereo not drawn)
163 to 164 °C | Cl.Nn1c(=O)c2cc(F)c(N3CCC(CNCC(F)(F)F)C3)c(Cl)c2n(C2CC2)c1=O (stereo not drawn)
117 to 120 °C | CC(C)(N)[C@@H]1CCN(c2c(F)cc3c(=O)n(N)c(=O)n(C4CC4)c3c2Cl)C1.Cl
170 to 172 °C | Cl.NCC1CCN(c2cc3c(cc2F)c(=O)n(N)c(=O)n3C2CC2)C1 (stereo not drawn)
125 to 127 °C | CC(C)NCC1CCN(c2c(F)cc3c(=O)n(N)c(=O)n(C4CC4)c3c2Cl)C1.Cl (stereo not drawn)
201 °C | COc1c(N2CCC(CN)CC2)c(F)cc2c(=O)n(N)c(=O)n(C3CC3)c12.Cl
109 to 112 °C | CS(=O)(=O)NCC1CCN(c2c(F)cc3c(=O)n(N)c(=O)n(C4CC4)c3c2Cl)C1 (stereo not drawn) [Compound 74, N-[1-(3-Amino-8-chloro-1-cyclopropyl-6-fluoro-2,4-dioxo-1,2,3,4-tetrahydroquinazolin-7-yl)pyrrolidin-3-ylmethyl]methanesulfonamide]
210 to 215 °C | CCN[C@@H](C)[C@@H]1CCN(c2c(F)cc3c(=O)n(N)c(=O)n(C4CC4)c3c2C)C1.Cl
111 to 114 °C | NC1C2CN(c3c(F)cc4c(=O)n(N)c(=O)n(C5CC5)c4c3Cl)CC12 (stereo not drawn) (as salt: hydrochloride)
134 °C (dec.) | COc1c(N2CCC(C(C)(C)O)C2)c(F)cc2c(=O)n(N)c(=O)n(C3CC3)c12.Cl (stereo not drawn)
131 to 133 °C | Cl.NCC1CCCN(c2c(F)cc3c(=O)n(N)c(=O)n(C4CC4)c3c2Cl)C1 (stereo not drawn)
219 to 221 °C | Cc1c(N2CCCC(CN)C2)c(F)cc2c(=O)n(N)c(=O)n(C3CC3)c12.Cl (stereo not drawn)
82 to 84 °C | Cc1c(N2CCC(CN)C2)c(F)cc2c(=O)n(N)c(=O)n(C3CC3)c12.O=C(O)C(F)(F)F (stereo not drawn)
181 to 183 °C | Cl.N[C@@H]1CN(c2c(F)cc3c(=O)n(N)c(=O)n(C4CC4)c3c2Cl)C[C@H]1C(F)(F)F (relative stereo)
277 °C | Cl.N#Cc1c(N2CCC(N)C2)c(F)cc2c(=O)n(N)c(=O)n(C3CC3)c12 (stereo not drawn)
200 °C | Cc1c(N2CCCC(CCN)C2)c(F)cc2c(=O)n(N)c(=O)n(C3CC3)c12.Cl (stereo not drawn)
192 to 194 °C | Cc1c(N2CC[C@H]([C@H](C)N)C2)c(F)cc2c(=O)n(N)c(=O)n(C3CC3)c12.Cl
200 to 202 °C | Cc1c(N2CC[C@@H](C(C)(C)N)C2)c(F)cc2c(=O)n(N)c(=O)n(C3CC3)c12.Cl
110 to 112 °C | Cc1c(N2CCC(N)C2)c(F)cc2c(=O)n(N)c(=O)n(C3CC3)c12.O=C(O)C(F)(F)F (stereo not drawn)
